Results: the NIST ThermoML archive (doi:10.1021/je900468u)
Numbers after ± are expanded uncertainties.

How the values were obtained:
[1] = xn = mol fraction of the nth substance listed; conditions: 101 kPa, Liquid; for speed of sound: Pulse-echo method
[2] = refractive index (Na D-line) (dimensionless); xn = mol fraction of the nth substance listed; conditions: 101 kPa, Liquid, Standard Abbe refractometry

c1ccccc1 [benzene] + C1CCCCC1
x2 = 0
Conditions | mass density, [1] [kg/m3] | refractive index, [2] | speed of sound, [1] [m/s]
283.15 K | 889.5 ± 0.3 | 1.50765 ± 0.00073 | 1371 ± 2
298.15 K | 873.9 ± 0.4 | 1.49774 ± 0.00073 | 1299 ± 2

c1ccccc1 [benzene] + C1CCCCCCC1
298.15 K, x2 = 0
Conditions | mass density [kg/m3] | refractive index | speed of sound [m/s]
[1] | 873.6 ± 0.4 | – | 1299 ± 2
[2] | – | 1.49774 ± 0.00068 | –

c1ccccc1 [benzene] + CC1CCCCC1
x2 = 0
Conditions | mass density, [1] [kg/m3] | refractive index, [2] | speed of sound, [1] [m/s]
283.15 K | 889.5 ± 0.3 | 1.50765 ± 0.00073 | 1371 ± 2
298.15 K | 873.6 ± 0.4 | 1.49774 ± 0.00073 | 1299 ± 2

C1CCCCC1 [cyclohexane] + CCc1ccccc1
x1 = 1
Conditions | mass density, [1] [kg/m3] | refractive index, [2] | speed of sound, [1] [m/s]
283.15 K | 787.8 ± 0.5 | 1.43193 ± 0.00064 | 1329 ± 2
298.15 K | 773.9 ± 0.5 | 1.4236 ± 0.00064 | 1255 ± 2

C1CCCCC1 [cyclohexane] + Cc1ccccc1
Conditions | mass density, [1] [kg/m3] | refractive index, [2] | speed of sound, [1] [m/s]
283.15 K, x1 = 0.0484 | 871 ± 0.4 | 1.4988 ± 0.00068 | 1365 ± 2
283.15 K, x1 = 0.099 | 865.8 ± 0.4 | 1.49476 ± 0.00068 | 1360 ± 2
283.15 K, x1 = 0.1997 | 855.8 ± 0.4 | 1.48684 ± 0.00068 | 1351 ± 2
283.15 K, x1 = 0.2973 | 846.1 ± 0.4 | 1.47919 ± 0.00068 | 1344 ± 2
283.15 K, x1 = 0.3975 | 836.6 ± 0.4 | 1.47167 ± 0.00068 | 1337 ± 2
283.15 K, x1 = 0.4999 | 827.3 ± 0.4 | 1.46416 ± 0.00068 | 1331 ± 2
283.15 K, x1 = 0.5881 | 819.6 ± 0.4 | 1.45803 ± 0.00068 | 1328 ± 2
283.15 K, x1 = 0.699 | 810.3 ± 0.4 | 1.45054 ± 0.00068 | 1325 ± 2
283.15 K, x1 = 0.7985 | 802.4 ± 0.5 | 1.44407 ± 0.00068 | 1324 ± 2
283.15 K, x1 = 0.8961 | 795.1 ± 0.5 | 1.43794 ± 0.00068 | 1325 ± 2
283.15 K, x1 = 0.9497 | 791.3 ± 0.5 | 1.43489 ± 0.00068 | 1327 ± 2
283.15 K, x1 = 1 | – | – | 1329 ± 2
298.15 K, x1 = 0.0484 | 857.2 ± 0.4 | 1.49021 ± 0.00068 | 1300 ± 2
298.15 K, x1 = 0.099 | 852 ± 0.4 | 1.48614 ± 0.00068 | 1294 ± 2
298.15 K, x1 = 0.1997 | 842 ± 0.4 | 1.47829 ± 0.00068 | 1285 ± 2
298.15 K, x1 = 0.2973 | 832.3 ± 0.4 | 1.47073 ± 0.00068 | 1276 ± 2
298.15 K, x1 = 0.3975 | 822.8 ± 0.4 | 1.4632 ± 0.00068 | 1269 ± 2
298.15 K, x1 = 0.4999 | 813.4 ± 0.4 | 1.4558 ± 0.00068 | 1263 ± 2
298.15 K, x1 = 0.5881 | 805.7 ± 0.4 | 1.44964 ± 0.00068 | 1258 ± 2
298.15 K, x1 = 0.699 | 796.4 ± 0.5 | 1.44216 ± 0.00068 | 1254 ± 2
298.15 K, x1 = 0.7985 | 788.4 ± 0.5 | 1.4358 ± 0.00068 | 1252 ± 2
298.15 K, x1 = 0.8961 | 781.1 ± 0.5 | 1.42971 ± 0.00068 | 1252 ± 2
298.15 K, x1 = 0.9497 | 777.4 ± 0.5 | 1.42663 ± 0.00068 | 1253 ± 2
298.15 K, x1 = 1 | 773.9 ± 0.5 | 1.4236 ± 0.00068 | 1255 ± 2

C1CCCCC1 [cyclohexane] + c1ccccc1
Conditions | mass density, [1] [kg/m3] | refractive index, [2] | speed of sound, [1] [m/s]
283.15 K, x1 = 0.047 | 882.7 ± 0.4 | 1.50275 ± 0.00072 | 1364 ± 2
283.15 K, x1 = 0.0984 | 875.6 ± 0.4 | 1.49741 ± 0.00073 | 1358 ± 2
283.15 K, x1 = 0.1978 | 862.4 ± 0.4 | 1.48772 ± 0.00073 | 1346 ± 2
283.15 K, x1 = 0.2968 | 850.4 ± 0.4 | 1.47886 ± 0.0007 | 1338 ± 2
283.15 K, x1 = 0.3929 | 839.4 ± 0.4 | 1.47071 ± 0.0007 | 1331 ± 2
283.15 K, x1 = 0.4996 | 828.3 ± 0.4 | 1.46247 ± 0.00069 | 1326 ± 2
283.15 K, x1 = 0.6003 | 818.8 ± 0.4 | 1.45532 ± 0.00067 | 1323 ± 2
283.15 K, x1 = 0.7022 | 809.9 ± 0.4 | 1.44865 ± 0.00067 | 1322 ± 2
283.15 K, x1 = 0.7963 | 802.3 ± 0.5 | 1.44324 ± 0.00068 | 1322 ± 2
283.15 K, x1 = 0.8954 | 794.9 ± 0.5 | 1.43781 ± 0.00066 | 1325 ± 2
283.15 K, x1 = 0.9501 | 791.2 ± 0.5 | 1.43453 ± 0.00065 | 1327 ± 2
283.15 K, x1 = 1 | 787.8 ± 0.5 | 1.43193 ± 0.00064 | 1329 ± 2
298.15 K, x1 = 0.047 | 867.1 ± 0.4 | 1.49298 ± 0.00072 | 1293 ± 2
298.15 K, x1 = 0.0984 | 859.9 ± 0.4 | 1.48771 ± 0.00071 | 1286 ± 2
298.15 K, x1 = 0.1978 | 847 ± 0.4 | 1.47808 ± 0.00069 | 1275 ± 2
298.15 K, x1 = 0.2968 | 835.2 ± 0.4 | 1.46965 ± 0.00069 | 1266 ± 2
298.15 K, x1 = 0.3929 | 824.5 ± 0.4 | 1.46157 ± 0.00067 | 1259 ± 2
298.15 K, x1 = 0.4996 | 813.6 ± 0.4 | 1.45354 ± 0.00066 | 1254 ± 2
298.15 K, x1 = 0.6003 | 804.2 ± 0.4 | 1.44654 ± 0.00065 | 1251 ± 2
298.15 K, x1 = 0.7022 | 795.5 ± 0.5 | 1.44001 ± 0.00065 | 1249 ± 2
298.15 K, x1 = 0.7963 | 788 ± 0.5 | 1.43431 ± 0.00066 | 1249 ± 2
298.15 K, x1 = 0.8954 | 780.8 ± 0.5 | 1.42891 ± 0.00067 | 1250 ± 2
298.15 K, x1 = 0.9501 | 777.2 ± 0.5 | 1.42611 ± 0.00064 | 1252 ± 2
298.15 K, x1 = 1 | 773.9 ± 0.5 | 1.4236 ± 0.00064 | 1255 ± 2

C1CCCCCCC1 [cyclooctane] + CCc1ccccc1
298.15 K
Conditions | mass density, [1] [kg/m3] | refractive index, [2] | speed of sound, [1] [m/s]
x1 = 0.0465 | 860.4 ± 0.4 | 1.49082 ± 0.00068 | 1321 ± 2
x1 = 0.0962 | 858.3 ± 0.4 | 1.48858 ± 0.00068 | 1322 ± 2
x1 = 0.1961 | 854.1 ± 0.4 | 1.48405 ± 0.00068 | 1327 ± 2
x1 = 0.2944 | 850.3 ± 0.4 | 1.47983 ± 0.00068 | 1332 ± 2
x1 = 0.3975 | 846.6 ± 0.4 | 1.47562 ± 0.00068 | 1339 ± 2
x1 = 0.4959 | 843.4 ± 0.4 | 1.47185 ± 0.00069 | 1346 ± 2
x1 = 0.5935 | 840.4 ± 0.5 | 1.46828 ± 0.00069 | 1353 ± 2
x1 = 0.6929 | 837.6 ± 0.5 | 1.46489 ± 0.00069 | 1361 ± 2
x1 = 0.7954 | 835.2 ± 0.5 | 1.4616 ± 0.0007 | 1370 ± 2
x1 = 0.8899 | 833.2 ± 0.5 | 1.45885 ± 0.0007 | 1379 ± 2
x1 = 0.9497 | 832.1 ± 0.5 | 1.45726 ± 0.0007 | 1385 ± 2
x1 = 1 | 831.5 ± 0.5 | 1.45598 ± 0.0007 | 1391 ± 2
